The subject of test [1] is crude intestinal α-glucosidase. The experiment in a line: In-vitro mammalian (rat intestinal) α-glucosidase inhibition assay. Type of test: biochemical. To be noted: for Mammalian α Glucosidase Inhibition (Mean ± S.E): highest concentration 5 mg/ml. The method in brief:
(§1)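 p-Nitrophenol release (405 nm) from 5 mM p-nitrophenyl glucoside, read 5 min after substrate addition following 5 min sample–enzyme preincubation in pH 6.8 phosphate buffer. Enzymes: baker's yeast α-glucosidase (0.76 U/ml) and sonicated rat intestinal acetone powder supernatant. Blank-corrected inhibition vs DMSO; IC50 by log regression.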

Another test concerns mice. Kind of test: Adenosine mediated bronchoconstriction and lung inflammation in an allergic mouse model. The format is in vivo. Also on record: Total count: unit not given here. To be noted: BAL fluid cells; 100 mg/kg oral. The gist of the method:
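Male mice sensitized i.p. with ragweed (days 1, 6), challenged with 0.5% ragweed aerosol twice daily for 3 days; 24 h later dosed orally (acacia suspension; theophylline 100 mg/kg), then challenged with adenosine (24 mg/ml) 2 h post-dose. Respiration recorded by kymograph under pentobarbitone; BAL total and differential cell counts.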

For a further test, the system named is IL-1β. Kind of test: IL-1β in rat paw tissue and serum, FCA model (ELISA). Type of test: in vivo. Details: % Inhibition (IL-1 Beta) / Percentage of Inhibition (IL-1 Beta): concentration or dose not given beside the values. To be noted: for % Inhibition (IL-1 Beta): FCA model. The procedure: Group I—Normal Control; Group II—Arthritic control; Group III—Arthritic rats administered with Synthetic compound BN-4; Group IV—arthritic rats administered with compound BN-14; Group V—arthritic rats administered with BN-16; Group VI—arthritic rats administered with standard drug indomethacin. Administration of test compounds and indomethacin started on the same day of adjuvant injection at the dose of 100 and 2.5 mg/kg respectively. The test and indomethacin doses continued up to 21 days in FCA induced model and 24 days in collagen induced model. During the study period the paw volumes were measured on 5th, 12th, 18th and 21 st days and the weight of the animals was also recorded at different time intervals. At each time point the percentage of inhibition of paw volume was calculated with reference to mean paw volume of control group In FCA model, animals were sacrificed on 21st day by cervical dislocation. Before sacrificing the animals, blood was collected and used for estimation of total leukocyte count, TNF-α and IL-1β.
In FCA induced study paw tissues were collected on termination day and estimated TNF-α and IL-1β levels for all the groups by ELISA method.
On termination day blood samples were collected and serum was used for the estimation of Both TNF-α and IL-1β levels in FCA and Collagen induced studies. Both the parameters were determined using ELISA kits. TNF-α could not be determined as their expression is very less in serum samples of the rats in the two models studied, where as IL-1β expression in serum was good. Daily treatment of synthetic compounds by oral administration was effective in reducing the serum IL-1β levels (P<0.01) when compared with arthritic control group.

The test system of another test is nitric oxide. Kind of test: Nitric oxide inhibition assay, sodium nitroprusside method. The conditions noted are these: Griess reagent, vs control. (In general: Griess reagent forms a coloured azo dye with nitrite.)
In another test the target is T1, yeast α-glucosidase (Saccharomyces cerevisiae, UniProt P53341).
T1 construct: α-Glucosidase [(EC 3.2.1.20) Type I: from bakers yeast]
T1 sequence (P53341 whole entry): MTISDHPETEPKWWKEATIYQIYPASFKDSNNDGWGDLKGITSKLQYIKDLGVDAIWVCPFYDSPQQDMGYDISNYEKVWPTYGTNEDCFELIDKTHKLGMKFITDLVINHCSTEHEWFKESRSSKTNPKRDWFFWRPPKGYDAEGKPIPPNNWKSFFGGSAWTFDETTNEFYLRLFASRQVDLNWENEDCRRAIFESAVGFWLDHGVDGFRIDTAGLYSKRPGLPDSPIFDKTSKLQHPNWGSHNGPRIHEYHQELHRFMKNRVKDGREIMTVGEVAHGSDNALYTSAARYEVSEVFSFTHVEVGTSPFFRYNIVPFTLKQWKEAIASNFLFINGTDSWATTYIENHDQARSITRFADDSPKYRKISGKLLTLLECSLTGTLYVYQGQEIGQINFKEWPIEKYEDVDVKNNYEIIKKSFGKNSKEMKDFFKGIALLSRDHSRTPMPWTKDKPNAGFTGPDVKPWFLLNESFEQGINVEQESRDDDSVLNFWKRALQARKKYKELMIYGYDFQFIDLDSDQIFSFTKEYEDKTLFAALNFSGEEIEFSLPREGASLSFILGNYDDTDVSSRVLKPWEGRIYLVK
The experiment in a line: In-vitro yeast α-glucosidase inhibition assay. Type of test: biochemical, bakers yeast. The gist of the method:
as §1

The mark [2] stands for this setting: paw tissue, termination day (21st day), BN compounds 100 mg/kg, indomethacin 2.5 mg/kg.
Setting [3] is: rat serum, termination day, FCA induced arthritis.

Structures are written as SMILES. Values after ≈ are worked out from the molar mass of the structure shown.

By inhibition is commonly meant the share of the control response that was lost under treatment. A word on the IC50: it is the concentration needed to halve the response being measured.

For the molecule `Cc1sc2nc3c(c(N)c2c1C)CCCCC3` [BN-4, 2,3-dimethyl-6,7,8,9-tetrahydro-5H-cyclohepta[b]thieno[3,2-e]pyridin-4-amine], in test [1], the “Mammalian α-glucosidase inhibitory activity (in words)” value was “moderate inhibitory activity” and the “Mammalian α Glucosidase Inhibition (Mean ± S.E)” value was 38.37 ± 1.0%. In the test on mice, the “Differential count (%) Lymphocytes” value came out at 80%, the “Differential count (%) Monocytes” value stood at 20% and the Total count was determined as 9. For the same molecule, the “IL-1 Beta concentration” value in the test on IL-1β (setting [2]) is given as 92.07 ± 10.70 ng/gm of tissue. Moreover, the “% Inhibition (IL-1 Beta)” value in the test with IL-1β (paw tissue, termination day) amounted to 33.59 ± 5.53%. In the test on IL-1β (setting [3]), the “IL-1 Beta concentration” value is 22.83 ± 9.93 Pg/ml of tissue and the “Percentage of Inhibition (IL-1 Beta)” value was determined as 29.28 ± 3.60%. Moreover, the “NO release in Sodium Nitroprusside method” value (“NO release” for short) in the test on nitric oxide is “significantly inhibited”.

On to `Nc1c2c(nc3sc4c(c13)CCC4)CCCC2` [BN-14, 2,3,6,7,8,9-Hexahydro-1H-cyclopenta[4,5]thieno[2,3-b]quinolin-10-amine], for which the “Yeast α-glucosidase enzyme inhibitory activity (in words)” value on yeast α-glucosidase is “strong significant inhibitory activity”. At yeast α-glucosidase (yeast α-glucosidase, 0.039063 mg/ml, read-out: % Inhibition (Mean ± S.E)), the inhibition at 39.063 µg/mL worked out at 19.6%. The inhibition at 78.125 µg/mL at yeast α-glucosidase (yeast α-glucosidase, 0.078125 mg/ml, read-out: % Inhibition (Mean ± S.E)) was determined as 25.84 ± 0.13%. In addition, the inhibition at 156.25 µg/mL at yeast α-glucosidase (yeast α-glucosidase, 0.15625 mg/ml, read-out: % Inhibition (Mean ± S.E)) was found to be 33.31 ± 0.04%. The inhibition at 312.5 µg/mL on yeast α-glucosidase (yeast α-glucosidase, 0.3125 mg/ml, read-out: % Inhibition (Mean ± S.E)) was found to be 42.8 ± 1.38%. Besides, the inhibition at 625 µg/mL at yeast α-glucosidase (yeast α-glucosidase, 0.625 mg/ml, read-out: % Inhibition (Mean ± S.E)) came to 50.3 ± 3.39%. For the same molecule, at yeast α-glucosidase (yeast α-glucosidase, 1.25 mg/ml, read-out: % Inhibition (Mean ± S.E)), the inhibition at 1250 µg/mL was determined as 63.8 ± 1.71%. Also, the inhibition at 2500 µg/mL on yeast α-glucosidase (yeast α-glucosidase, 2.5 mg/ml, read-out: % Inhibition (Mean ± S.E)) was 67.8 ± 1.18%. At yeast α-glucosidase (yeast α-glucosidase, 5 mg/ml, read-out: % Inhibition (Mean ± S.E)), the inhibition at 5000 µg/mL was found to be 72.2 ± 1.87%. Moreover, in test [1], the “Mammalian α-glucosidase inhibitory activity (in words)” value was “significant inhibitory activity”. In addition, the “Mammalian α-glucosidase inhibition (Mean ± S.E)” value in test [1] (0.039063 mg/ml) stood at 7.79 ± 3.11%; in test [1] (0.078125 mg/ml), 20.75 ± 2.19%; in test [1] (0.15625 mg/ml) it was 26.76 ± 1.37%; in test [1] (0.3125 mg/ml), 34.49 ± 1.19%; in test [1] (0.625 mg/ml), 40.62 ± 0.63%; in test [1] (1.25 mg/ml), 51.56 ± 0.74%. Moreover, the “Mammalian α-glucosidase inhibition (Mean ± S.E)” value in test [1] (2.5 mg/ml) is on record as 54.74 ± 1.01%; in test [1] (5 mg/ml), 58.37 ± 2.20%. For the same molecule, in test [1], the “Mammalian α Glucosidase Inhibition (Mean ± S.E)” value worked out at 58.37%. Also, in test [1] (mammalian α-glucosidase, dose response study), the IC50 came out at 1560 µg/mL (≈ 6.38 mM). Besides, in the test on mice, the “Differential count (%) Eosinophils” value was determined as 15%. Moreover, the “Differential count (%) Lymphocytes” value with mice is recorded as 80%. Further, the “Differential count (%) Monocytes” value in the test with mice is 13.5%. In the test with mice, this molecule yielded a Total count of 13.5. The entries for the “IL-1 Beta concentration” value with IL-1β (setting [2]) and with IL-1β (setting [3]) were 113.0 ± 26.8 ng/gm of tissue and 50.83 ± 6.11 Pg/ml of tissue, respectively. Besides, the “% Inhibition (IL-1 Beta)” value in the test with IL-1β (paw tissue, termination day) is 38.49 ± 14.97%. Also, the “Percentage of Inhibition (IL-1 Beta)” value in the test on IL-1β (setting [3]) is listed as 22.17 ± 6.51%. Also, the “NO release” value in the test with nitric oxide was “significantly inhibited”.

Regarding `Nc1c2c(nc3sc4c(c13)CCC4)CCCCC2` [BN-16, 1,2,3,6,7,8,9,10-Octahydrocyclohepta[b]cyclopenta[4,5]thieno[3,2-e]pyridine-11-amine], in test [1], the “Mammalian α Glucosidase Inhibition (Mean ± S.E)” value is given as 4.46 ± 1.77%. In the test on mice, the “Differential count (%) Eosinophils” value came to 12%, the “Differential count (%) Lymphocytes” value is listed as 90%, the “Differential count (%) Monocytes” value was found to be 15% and the Total count stood at 8. In the test with IL-1β (setting [2]), the “IL-1 Beta concentration” value was 68.87 ± 21.1 ng/gm of tissue. Moreover, in the test on IL-1β (paw tissue, termination day), the “% Inhibition (IL-1 Beta)” value was 40.51 ± 9.56%. In addition, in the test with IL-1β (setting [3]), the “IL-1 Beta concentration” value is recorded as 17.0 ± 4.50 Pg/ml of tissue and the “Percentage of Inhibition (IL-1 Beta)” value was determined as 32.48 ± 6.22%. The “NO release” value in the test with nitric oxide is listed as “significantly inhibited”.

Values taken from patent US20110269790A1, “NOVEL THIENOPYRIDINES AS PHARMACOLOGICALLY ACTIVE AGENTS” (priority 2009, published 2011).
